{
  "source": "paper PMC9573696",
  "about": "“Experimental Examination of Solubility and Lipophilicity as Pharmaceutically Relevant Points of Novel Bioactive Hybrid Compounds” (Molecules, 2022)",
  "test_in_all_cases": "In vitro antifungal activity, microbroth dilution (MIC)",
  "type_in_all_cases": "cell-based",
  "key": {"[1]": {"system": "C. glabrata 61L", "conditions": "Nakaseomyces glabratus; C. glabrata 61L; 35 °C, 24 h; read-out: MIC", "protocol": "(§1) The in vitro antifungal screening results of synthesized compounds was evaluated against three fungal strains: C. parapsilosis ATCC 22019, C. utilis 84, and C. glabrata 61L are summarized in Table 1.\n(§2) The in vitro antifungal activity of the target compounds was measured by means of the minimal inhibitory concentrations (MIC) with fluconazole as the control drug. Procedure was carried out by the microbroth dilution method in 96-well plates according to the recommendations of the Clinical and Laboratory Standards Institute. The detailed information was reported previously. The investigated pathogenic species included C. parapsilosis ATCC 22019, C. utilis 84 and C. glabrata 61. The sensitivity was evaluated visually, after the incubation at 35 °C for 24 h and the value was compared with the growth density in the reference culture without the sample. Each test was conducted in triplicate."}, "[2]": {"system": "C. parapsilosis ATCC 22019", "conditions": "Lodderomyces parapsilosis, ATCC22019; C. parapsilosis ATCC 22019; 35 °C, 24 h; read-out: MIC", "protocol": "as §1, §2"}, "[3]": {"system": "C. utilis 84", "conditions": "Williopsis jadinii; C. utilis 84; 35 °C, 24 h; read-out: MIC", "protocol": "as §1, §2"}},
  "data": [
    {"compound": "OC(Cn1cncn1)(Cn1cncn1)c1ccc(F)cc1F", "note": "[Fluconazole, reference compound]", "values": [
      {"measurement": "MIC", "setting": "[1]", "value": 8, "unit": "µg/mL"},
      {"measurement": "MIC", "setting": "[2]", "value": 2, "unit": "µg/mL"},
      {"measurement": "MIC", "setting": "[3]", "value": 2, "unit": "µg/mL"}
    ]}
  ]
}
